These results are taken from ChEMBL document CHEMBL1201862, “PubChem BioAssay data set” (2004).

For orientation: EC50 means the concentration giving half of the maximal effect. In general, AC50 refers to the concentration at which the activity in the assay is half-maximal.

Series [1] has as its system Streptococcus sp. 'group A'. Description: growth inhibition of control SK(-) GAS strain, dose response, counter-screen for streptokinase expression inhibitor project, luminescence, kanamycin, BacTiterGlo, confirmation (AID 1900). It counts as functional, organism-based. Background: The purpose of a counterscreen is to sort out artefacts and off-target activity.
The target of series [2] is T1, Streptokinase A (Streptococcus pyogenes serotype M1, UniProt P10520).
T1 sequence (P10520 whole entry): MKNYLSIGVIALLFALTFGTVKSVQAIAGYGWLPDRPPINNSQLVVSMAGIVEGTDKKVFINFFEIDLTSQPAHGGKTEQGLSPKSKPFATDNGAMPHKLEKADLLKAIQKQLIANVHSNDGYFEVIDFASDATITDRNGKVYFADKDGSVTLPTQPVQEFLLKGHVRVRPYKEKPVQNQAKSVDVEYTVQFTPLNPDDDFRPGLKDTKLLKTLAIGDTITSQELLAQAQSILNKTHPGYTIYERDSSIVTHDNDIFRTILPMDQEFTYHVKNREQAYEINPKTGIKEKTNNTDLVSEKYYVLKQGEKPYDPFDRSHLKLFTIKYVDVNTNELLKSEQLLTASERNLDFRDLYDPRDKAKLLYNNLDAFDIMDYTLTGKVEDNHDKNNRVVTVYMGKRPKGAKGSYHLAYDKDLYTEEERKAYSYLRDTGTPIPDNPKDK
Nature of the series: S. pyogenes streptokinase expression inhibitors, potency, dose response, plasminogen activation absorbance, OD405 (AID 1914).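 Note: secreted streptokinase activity via plasminogen activation per viability signal from cell pellet.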 It counts as functional, Streptococcus pyogenes M1 GAS.

The test system of series [3] is Streptococcus. Description: Group A Streptococcus viability loss, dose response, counter-screen for streptokinase expression inhibitor project, luminescence, BacTiterGlo (AID 1915).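 Note: potency for reduction of bacterial viability or growth.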 It counts as functional, organism-based.
Series [4] has as its target Cytochrome P450 2C9 (Homo sapiens, UniProt P11712).
A short description of series [5]: inhibitors of intracellular T. cruzi replication, confirmation, NIH3T3 host cells, beta-gal luminescence (AID 2044).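 Note: intracellular parasites grown in NIH/3T3 mouse fibroblasts as host cells; luminescent beta-galactosidase reporter signal from transgenic T. cruzi replicating inside host cells; inhibitors lower the luminescence signal.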 The class given is functional, cell-based.
A short description of series [6]: cytotoxicity toward NIH3T3 fibroblasts, dose response, counter-screen, cell-based, ATP luminescence, mouse fibroblasts (AID 2010).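 Note: cells exposed to compound for about 90 hours before reading.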 The class given is functional.
Series [7] deals with Cytochrome P450 2C19 (Homo sapiens, UniProt P33261). Nature of the series: Cytochrome panel assay with activity outcomes. Panel member name: p450-cyp2c19 Compounds with AC50 equal or less than 10 uM are considered active. The class given is functional.
Chain of Cytochrome P450 2C19 (P33261 whole entry): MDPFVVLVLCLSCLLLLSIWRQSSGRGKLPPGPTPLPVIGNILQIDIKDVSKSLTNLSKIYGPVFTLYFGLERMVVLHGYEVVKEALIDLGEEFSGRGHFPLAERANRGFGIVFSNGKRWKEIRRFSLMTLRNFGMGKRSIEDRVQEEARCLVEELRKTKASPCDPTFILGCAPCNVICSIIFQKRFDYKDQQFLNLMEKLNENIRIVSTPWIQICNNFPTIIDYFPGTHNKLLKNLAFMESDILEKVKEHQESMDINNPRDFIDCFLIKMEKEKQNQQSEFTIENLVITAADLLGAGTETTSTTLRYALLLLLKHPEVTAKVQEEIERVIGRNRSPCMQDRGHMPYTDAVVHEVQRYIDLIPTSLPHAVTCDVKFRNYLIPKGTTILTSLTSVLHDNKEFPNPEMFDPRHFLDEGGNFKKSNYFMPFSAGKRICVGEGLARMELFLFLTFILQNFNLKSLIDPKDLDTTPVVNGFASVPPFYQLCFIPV
The target of series [8] is T2, Heat shock factor protein 1 (Mus musculus, UniProt P38532).
T2 sequence (P38532 whole entry): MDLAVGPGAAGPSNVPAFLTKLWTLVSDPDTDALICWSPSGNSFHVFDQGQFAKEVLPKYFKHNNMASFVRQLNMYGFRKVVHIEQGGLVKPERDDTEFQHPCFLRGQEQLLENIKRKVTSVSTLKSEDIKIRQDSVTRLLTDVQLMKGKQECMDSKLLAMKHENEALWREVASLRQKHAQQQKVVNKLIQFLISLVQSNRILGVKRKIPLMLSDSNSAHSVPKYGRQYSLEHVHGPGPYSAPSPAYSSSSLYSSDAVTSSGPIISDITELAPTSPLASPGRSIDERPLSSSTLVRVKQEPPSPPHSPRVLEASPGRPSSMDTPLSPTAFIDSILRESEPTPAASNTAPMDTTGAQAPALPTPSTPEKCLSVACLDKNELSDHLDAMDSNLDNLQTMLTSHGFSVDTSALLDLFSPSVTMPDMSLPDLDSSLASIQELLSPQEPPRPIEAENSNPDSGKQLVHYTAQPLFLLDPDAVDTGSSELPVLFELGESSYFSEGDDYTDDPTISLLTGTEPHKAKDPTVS
Description: inhibition of MG132-induced HSE-luciferase signal, confirmation, cell-based, NIH3T3, luminescence, dose retest (AID 2382).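 Note: NIH3T3 fibroblasts with HSF1-driven luciferase reporter stressed by proteasome inhibitor MG132; luminescence from HSF1-driven luciferase expression after 8 hours of MG132 stress.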 The class given is functional.

The structures appear in SMILES notation. The source made the active and inactive calls. A value given as a limit tells only on which side of the number the result lay.

Chain of Cytochrome P450 2C9 (P11712 whole entry): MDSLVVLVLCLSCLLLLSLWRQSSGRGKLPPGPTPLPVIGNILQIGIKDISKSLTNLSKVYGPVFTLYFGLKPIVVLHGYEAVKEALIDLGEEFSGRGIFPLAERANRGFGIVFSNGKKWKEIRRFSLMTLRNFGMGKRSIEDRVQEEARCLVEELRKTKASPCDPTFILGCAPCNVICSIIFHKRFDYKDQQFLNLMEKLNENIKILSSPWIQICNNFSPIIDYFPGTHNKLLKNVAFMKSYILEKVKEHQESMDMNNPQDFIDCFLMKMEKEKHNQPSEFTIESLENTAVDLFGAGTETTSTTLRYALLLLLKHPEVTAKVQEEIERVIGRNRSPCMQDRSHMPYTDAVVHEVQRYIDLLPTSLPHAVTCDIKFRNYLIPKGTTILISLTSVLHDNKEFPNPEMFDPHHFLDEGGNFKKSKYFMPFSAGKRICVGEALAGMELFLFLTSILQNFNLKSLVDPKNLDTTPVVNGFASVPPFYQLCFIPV

As for `CNC(=O)C(=O)NCC1OCCN1S(=O)(=O)c1ccc(OC)c(OC)c1` (configuration not stated), the EC50 in series [1], in series [2] and in series [3] was > 150 µM (not active) throughout.

As for `CCOc1cccc(N(C(=O)c2ccco2)C(C(=O)NC2CCCC2)c2cccnc2)c1` (configuration not stated), the EC50 in series [1], in series [2] and in series [3] was > 150 µM (not active) throughout.

Regarding `O=C(c1cnccn1)N1CCC2(CC1)CN(Cc1ccncc1)C2`, the AC50 in series [4] was 31.6 µM (inconclusive).

With `O=C(Nc1cc(Sc2ccccn2)cc([N+](=O)[O-])c1)c1cccc(Cl)c1`, the EC50 in series [5] was 0.625 µM (active); in series [6], > 60 µM (not active).

Regarding `COC(=O)[C@H](Cc1ccccc1)NC(=O)[C@@H](C)CO`, the half-maximal activity concentration (AC50) in series [4] is 3.98 µM (inconclusive).

In the case of `Oc1cc(CN2COc3ccccc32)c(O)cc1CNC1CCCCC1`, the half-maximal activity concentration (AC50) in series [7] (read-out: AC50) is 1.26 µM (inconclusive); in series [4], 6.31 µM (inconclusive).

For `O=C(O)CSc1ccn(Cc2ccccc2)c1`, the AC50 entry in series [7] is reported as “inconclusive”.

As for `CCCCCC(=O)NNC(=O)c1c(O)c2ccccc2n(CC)c1=O`, the 50% effective concentration (EC50) was 7.72 µM (active) in series [1], > 50 µM (not active) in series [2] and 19.1 µM (active) in series [3].

On to `Cn1ncc(Cl)c1C(=O)N1CCC2(CC1)OCCO2`, for which the EC50 in series [1], in series [2] and in series [3] was > 150 µM (not active) in each case.

In the case of `C[C@]12CC[C@@H]3C(=CCc4cc(O)ccc43)[C@@H]1CCC2=O`, the AC50 in series [7] (read-out: AC50) is 7.94 µM (inconclusive).

With `Clc1ccc(COn2c(-c3ccc(Cl)cc3)nc3ccccc32)cc1`, the EC50 in series [1] is 8.35 µM (active); in series [2], > 50 µM (not active); in series [3], 10.8 µM (active).

Regarding `NS(=O)(=O)c1ccc(/N=N\c2ccc(O)c(C(=O)O)c2)cc1`, the AC50 in series [4] was 1 µM (inconclusive).

In the case of `Cc1ccc(NC(=O)C2CCN(S(C)(=O)=O)CC2)cc1`, in series [7] (read-out: AC50), the AC50 was 20 µM (inconclusive).

As to `O=C(CCc1nc(-c2cccs2)no1)NCc1ccc(F)cc1Cl`, in series [8], the EC50 is given as > 195 µM (not active).

As to `O=S(=O)(CCc1nc2ccccc2[nH]1)c1ccc(Cl)cc1`, the EC50 in series [8] is > 195 µM (not active).

`CC1=NN(C(N)=S)C(=O)C1N=Nc1c(C)cc(C)cc1C` (configuration not stated): the EC50 is 5.14 µM (active) in series [1], > 150 µM (not active) in series [2] and > 150 µM (not active) in series [3].

On to `CCN(CC)c1ccc(CNc2nc3ccccc3n2CCN2CCOCC2)cc1`, for which, in series [8], the EC50 is given as > 195 µM (not active).

As for `c1ccc(C(NCCNC(c2ccccc2)c2ccccc2)c2ccccc2)cc1`, the half-maximal effective concentration (EC50) in series [1] is 1.51 µM (active); in series [2] it was 12 µM (active); in series [3] it was 20.8 µM (active).

On to `COc1ccc(C(=O)N2CCC3(CCN(Cc4ccncc4)CC3)CC2)cc1`, for which the AC50 in series [4] was 7.94 µM (inconclusive).

Turning to `CC(=O)OCC1=C(C(=O)O)N2C(=O)C(NC(=O)Cn3nc(C(F)F)c(Cl)c3C)C2SC1` (configuration not stated), the results for the EC50 in series [1] and in series [3] were < 0.06 µM (active) and 0.111 µM (active), respectively.

Take `CN(C)C(=O)CSc1nnc(O)nc1O`: in series [8], the concentration giving a half-maximal response (EC50) was > 195 µM (not active).

Regarding `COc1ccc(C(=O)C2CCCN(Cc3cnc(N4CCOCC4)s3)C2)c(OC)c1` (configuration not stated), the EC50 was 0.991 µM (active) in series [5] and > 60 µM (not active) in series [6].

For `COc1ccc(OC)c(NC(=O)NCc2cccnc2)c1`, the EC50 in series [1], in series [2] and in series [3] was > 150 µM (not active) in each case.

Take `CCn1cnc2c1c(=O)n(CC(=O)Nc1cc(C)on1)c(=O)n2Cc1ccccc1`: the EC50 in series [1], in series [2] and in series [3] was > 150 µM (not active) in each case.

In the case of `COC(=O)c1cc(C(=O)Nc2ccc(S(=O)(=O)NC(C)(C)C)cc2)cc([N+](=O)[O-])c1`, the values for the EC50 in series [5] and in series [6] were 0.797 µM (active) and > 60 µM (inconclusive), respectively.

`CCN(CC)CCCSc1nc2ccccc2s1`: the values for the EC50 in series [5] and in series [6] were 0.445 µM (active) and > 30 µM (not active), respectively.

Turning to `C[C@@H](CCCCC(=O)Nc1ccc(C(F)(F)F)cc1)NCCc1c[nH]cn1`, the AC50 in series [7] (read-out: AC50) is 15.8 µM (inconclusive).

Consider `CCOc1ccc(CCNC(=O)c2cc(-c3ccccc3)c(N3CCOCC3)s2)cc1`, for which the EC50 in series [5] was 1.45 µM (active); in series [6], > 60 µM (not active).

For the compound `CCCCN(C)CC(O)Cn1cc(/C=C/C(=O)c2ccc(OCC)cc2)c2ccccc21` (configuration not stated), the EC50 in series [5] is 0.154 µM (active); in series [6], 6.17 µM (active).

In the case of `N#Cc1cccc(-c2cc(NCc3cccnc3)ncn2)c1`, the AC50 in series [7] (read-out: AC50) was 15.8 µM (inconclusive).

With `CCOC(=O)c1cccc(NC(=O)C2CCN(c3ncnc4c3nc3n4CCCCC3)CC2)c1`, the EC50 in series [8] is given as > 195 µM (not active).

In the case of `CCOc1ccc(-n2c(SCc3nc(-c4cccs4)no3)nnc2-c2ccncc2)cc1`, the EC50 in series [5] is 1.25 µM (active); in series [6], > 60 µM (not active).

In the case of `COc1ccc(-c2cc3nc(C)c(CCC(=O)NCc4ccc(F)cc4)c(C)n3n2)c(OC)c1`, the EC50 in series [5] is 1.33 µM (active); in series [6], > 60 µM (inconclusive).

Take `Cc1cccc(C(=O)NC2CCN(C(=O)N3CCOCC3)CC2)c1`: in series [7] (read-out: AC50), the AC50 is 31.6 µM (inconclusive).

On to `CCS(=O)(=O)c1nc(S(=O)(=O)c2ccc(C)cc2)c(NCCN2CCOCC2)s1`, for which the EC50 in series [1], in series [2] and in series [3] was > 150 µM (not active) each time.

Regarding `CCOC(=O)n1c(SCC(N)=O)nc2ccccc21`, the EC50 in series [8] was > 195 µM (not active).

`C=CCO/C(O)=C1\C(C)=NC(SCC)=C(C#N)C1c1ccc(Cl)cc1` (configuration not stated): the EC50 was 4.9 µM (active) in series [1], 8.34 µM (active) in series [2] and 17.6 µM (active) in series [3].

As to `COc1ccc(O[C@H]2C=C[C@@H](c3ccccc3)O[C@H]2COC(=O)CC/C(C)=N\O[C@@H](C)c2cc(-c3c(C)cc(C)cc3C)no2)cc1`, in series [4], the AC50 was 1.58 µM (inconclusive).

`CN1CCN(C(=O)c2ccc3c(=O)n4c(nc3c2)CCCCC4)CC1`: in series [7] (read-out: AC50), the AC50 was 10 µM (inconclusive).

Take `O=C(C1CCC(CNS(=O)(=O)c2cccc3cccnc23)CC1)N1CCCC1` (configuration not stated): the EC50 in series [8] is reported as > 195 µM (not active).

Turning to `CCOc1ccc(-n2c(C)cc(/C=C3/C(=N)N4C(=NC3=O)SN=C4S(C)(=O)=O)c2C)cc1`, the EC50 in series [1] is 0.599 µM (active); in series [2], > 150 µM (not active); in series [3], 17.5 µM (active).

For the compound `Cc1cc(C)n(-c2cc(N3CCN(S(=O)(=O)c4ccc(C)c(C)c4)CC3)ccc2[N+](=O)[O-])n1`, in series [4], the AC50 was 2.24 µM (inconclusive).

For `Cc1ccc(CN2C(=O)CCC2C(=O)NCc2cccnc2)cc1` (configuration not stated), the AC50 in series [4] is 28.2 µM (inconclusive).

Turning to `Clc1ccc(/C=N/N=C(/Nc2ccccc2)c2ccccn2)c(Cl)c1`, the EC50 in series [1] was 10.9 µM (active); in series [2], > 150 µM (not active); in series [3], 30.2 µM (active).

For `O=C(O)CCC(=O)N1CCc2cc(S(=O)(=O)NCc3cccs3)ccc21`, the AC50 in series [7] (read-out: AC50) was 25.1 µM (inconclusive); in series [4], 31.6 µM (inconclusive).

As to `COCCOC(=O)C1=C(C)N=C(C)/C(=C(/O)OC(C)C)C1c1cccc([N+](=O)[O-])c1` (configuration not stated), the EC50 in series [5] was 1.31 µM (active); in series [6], > 60 µM (not active).

`CCOc1nn(-c2ccc(Cl)cc2)c(O)c1/C=N/c1ccc(Cl)cc1`: the AC50 in series [4] was 12.6 µM (inconclusive).

On to `COc1ccc2nc(/N=C\N(C)C)sc2c1`, for which the AC50 in series [7] (read-out: AC50) was 22.4 µM (inconclusive); in series [4], 0.00562 µM (inconclusive).
